Data set [1] concerns the target T1, Indoleamine 2,3-dioxygenase 1 (Homo sapiens, UniProt P14902). Description: Inhibition of IDO1 in IFNgamma-stimulated human HeLa cells incubated for 24 hrs. Type of data set: cell-based.
Data set [2] has as its target T1, Indoleamine 2,3-dioxygenase 1. Description: Inhibition of recombinant human IDO1 assessed as conversion of […] incubated for 1 hr by fluorescence analysis.
The nature of data set [3]: Toxicity in rat administered as bid for 28 days. It is filed as organism-based. As to conditions: in vivo.
A short description of data set [4]: Toxicity in dog administered as bid for 28 days. Type of data set: organism-based, Canis lupus familiaris. As to conditions: in vivo.
For data set [5], the system named is Mus musculus. Description: Reduction of kynurenine in LPS-stimulated mouse plasma at 50 mg/kg, po by LC/MS/MS analysis. On the set-up: scale not given: the % may be the effect or the level left. It is filed as functional.
In data set [6] the test system is Mus musculus. The data set can be described thus: Reduction of kynurenine in LPS-stimulated mouse tissue at 50 mg/kg, po by LC/MS/MS analysis. It is filed as functional. On the set-up: scale not given: the % may be the effect or the level left.

T1 sequence (P14902 whole entry): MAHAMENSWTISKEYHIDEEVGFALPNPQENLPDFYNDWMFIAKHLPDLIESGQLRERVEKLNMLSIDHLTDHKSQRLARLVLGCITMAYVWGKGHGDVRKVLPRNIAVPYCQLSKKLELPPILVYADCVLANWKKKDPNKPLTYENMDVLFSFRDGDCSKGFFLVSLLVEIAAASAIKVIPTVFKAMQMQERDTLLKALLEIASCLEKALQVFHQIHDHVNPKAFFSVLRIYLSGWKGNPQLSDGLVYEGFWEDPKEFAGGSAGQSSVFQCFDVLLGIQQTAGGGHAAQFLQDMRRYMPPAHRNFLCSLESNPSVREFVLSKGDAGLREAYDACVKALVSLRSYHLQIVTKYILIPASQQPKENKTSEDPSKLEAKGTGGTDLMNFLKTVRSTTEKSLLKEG

Take `OC(CC1c2ccccc2-c2cnnn21)C1CCCCC1` (stereo not drawn): the 50% effective concentration (EC50) in data set [1] was more than 10 µM. In addition, the IC50 in data set [2] is more than 10 µM.

Regarding `OC(Cn1c2ccccc2c2ccncc21)C1CCCCC1` (stereo not drawn), in data set [2], the IC50 was more than 10 µM.

As for `Cc1ncc2n1C(CC(O)C1CCCCC1)c1ccccc1-2` (stereo not drawn), in data set [1], the EC50 is more than 10 µM. Also, the IC50 in data set [2] is more than 10 µM.

As for `OC(Cn1c2ccccc2c2cccnc21)C1CCCCC1` (stereo not drawn), the IC50 in data set [2] was more than 10 µM.

In data set [1], `OC(CC1Nc2ccccc2-c2cncn21)C1CCCCC1` (stereo not drawn) gave an EC50 of more than 10 µM. For the same compound, the IC50 in data set [2] was found to be 1.14 µM.

In the case of `O=C(Cn1c2ccccc2c2cccnc21)C1CCCCC1`, the IC50 in data set [2] is more than 10 µM.

`OC(CC1c2ccccc2-c2cncn21)C1CCCCC1` (mixture of isomers): the NOAEL at 672 h in data set [3] and in data set [4] was 80 mg/kg/day each time. Further, the Activity in data set [5] and in data set [6] was 50% in each case.

The values are drawn from ChEMBL document CHEMBL3751777, “Important Hydrogen Bond Networks in Indoleamine 2,3-Dioxygenase 1 (IDO1) Inhibitor Design Revealed by Crystal Structures of Imidazoleisoindole Derivatives with IDO1” (J Med Chem, 2016).
